We go through 21 compounds from patent publication US20250312352A1, “GLP-1R MODULATING COMPOUNDS” (Gilead Sciences, Inc., priority 2021, published 2025).

T1 sequence (P43220 24-463): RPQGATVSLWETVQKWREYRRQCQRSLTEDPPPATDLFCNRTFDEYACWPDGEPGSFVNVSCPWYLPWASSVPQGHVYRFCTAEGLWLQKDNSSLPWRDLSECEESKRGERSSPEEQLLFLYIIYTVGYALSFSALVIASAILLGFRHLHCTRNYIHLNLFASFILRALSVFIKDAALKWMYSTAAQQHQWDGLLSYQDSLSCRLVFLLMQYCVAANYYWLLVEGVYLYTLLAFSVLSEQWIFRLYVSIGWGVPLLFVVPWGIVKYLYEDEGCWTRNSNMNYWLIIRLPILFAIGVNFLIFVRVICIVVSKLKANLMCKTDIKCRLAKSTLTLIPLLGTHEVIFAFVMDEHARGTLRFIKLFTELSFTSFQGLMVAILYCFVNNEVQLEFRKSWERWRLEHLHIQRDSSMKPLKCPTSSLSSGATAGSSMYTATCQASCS

This assay addresses T1, GLP-1R (Homo sapiens, UniProt P43220).
T1 construct: host or cells: CHO cells
The assay is described as follows: GLP-1R activation cAMP assay (Assay 1 or Assay 2). Format: cell-based. Conditions: cAMP increase in CHO cells stably expressing GLP-1R; compounds run on one of the two cAMP assays. On the procedure:
GLP-1R ACTIVATION—cAMP Assay 1
GLP-1R activation by compounds of the present disclosure was quantified by measuring cAMP increase in CHO cells stably expressing GLP-1R (MultiSpan product #C1267-1a). The cells were harvested and plated in growth medium (DMEM/F-12 (Corning product #10-090-CV) supplemented with 10% FBS (HyClone product #SH30071-03), penicillin/streptomycin (Corning product #30-002CI) and 10 μg/ml puromycin (Gibco product #A11138-03)) at 1,000 cells/well in a 384-well plate (Greiner product #781080). The cells were then incubated overnight at 37° C., 5% CO2. The next day, the medium was removed and the cells were washed with DPBS (Corning product #21-031-CM) before adding the assay medium (HBSS, Corning product #21-023-CV) with 20 mM Hepes (Gibco product #15630-080) and 0.1% BSA (Rockland Immunochemicals product #BSA-1000)). Following the medium change, the cells were incubated for 1 hour at 37° C., 5% CO2. The tested GLP-1 compound was added to the cells in a 10-point dose response followed by a 30-minute incubation at 37° C., 5% CO2. cAMP concentration increase was then detected using Cisbio's cAMP Gs Dynamic Kit (product #62AM4PEC) according to the manufacturer's protocol. The response was plotted against the log of the agonist concentration and fitted to a sigmoidal equation to determine the EC50.
GLP-1R ACTIVATION—cAMP Assay 2
GLP-1R activation by small molecule agonists was quantified by measuring cAMP increase in CHO cells stably expressing GLP-1R (MultiSpan product #C1267-1a). 50 nL of agonists were pre-spotted in a 10-point dose response onto 384-well plate (Corning product #CL3826) using the Labcyte Echo System.
`CCOc1nnc(COc2cccc(-c3cc(F)c(Cc4nc5c(F)cc(C(=O)O)cc5n4C[C@@H]4CCO4)cc3F)n2)s1` [Example 312, (S)-2-(4-(6-((5-ethoxy-1,3,4-thiadiazol-2-yl)methoxy)pyridin-2-yl)-2,5-difluorobenzyl)-4-fluoro-1-(oxetan-2-ylmethyl)-1H-benzo[d]imidazole-6-carboxylic acid] came in with an EC50 of 0.044 nM.

Turning to `NC(=O)c1cc(COc2cccc(-c3cc(F)c(Cc4nc5ccc(C(=O)O)cc5n4C[C@@H]4CCO4)cc3F)n2)cs1` [Example 129, (S)-2-(4-(6-((5-carbamoylthiophen-3-yl)methoxy)pyridin-2-yl)-2,5-difluorobenzyl)-1-(oxetan-2-ylmethyl)-1H-benzo[d]imidazole-6-carboxylic acid], a half-maximal effect (EC50) was put at 3.17 nM. As for `O=C(O)c1ccc2nc(Cc3cc(F)c(-c4cccc(OCc5ncc(C#CC6CCC6)s5)n4)cc3F)n(C[C@@H]3CCO3)c2c1` [Example 333, (S)-2-(4-(6-((5-(cyclobutylethynyl)thiazol-2-yl)methoxy)pyridin-2-yl)-2,5-difluorobenzyl)-1-(oxetan-2-ylmethyl)-1H-benzo[d]imidazole-6-carboxylic acid], the figure is 0.205 nM. The result for `N#CC1(NC(=O)c2ccc(COc3cccc(-c4cc(F)c(Cc5nc6ccc(C(=O)O)cc6n5C[C@@H]5CCO5)cc4F)n3)cn2)CC1` [Example 183, (S)-2-(4-(6-((6-((1-cyanocyclopropyl)carbamoyl)pyridin-3-yl)methoxy)pyridin-2-yl)-2,5-difluorobenzyl)-1-(oxetan-2-ylmethyl)-1H-benzo[d]imidazole-6-carboxylic acid] reads 0.26 nM. As for `N#CC1(NC(=O)c2cc(Cl)c(COc3cccc(-c4cc(F)c(Cc5nc6c(F)cc(C(=O)O)cc6n5C[C@@H]5CCO5)cc4F)n3)cn2)CCC1` [Example 190, (S)-2-(4-(6-((4-chloro-6-((1-cyanocyclobutyl)carbamoyl)pyridin-3-yl)methoxy)pyridin-2-yl)-2,5-difluorobenzyl)-4-fluoro-1-(oxetan-2-ylmethyl)-1H-benzo[d]imidazole-6-carboxylic acid], the figure is 0.2 nM; as for `O=C(O)c1ccc2nc(Cc3cc(F)c(-c4cccc(OCc5ccn(-c6ccncc6)n5)n4)cc3F)n(C[C@@H]3CCO3)c2c1` [Example 125, (S)-2-(2,5-difluoro-4-(6-((1-(pyridin-4-yl)-1H-pyrazol-3-yl)methoxy)pyridin-2-yl)benzyl)-1-(oxetan-2-ylmethyl)-1H-benzo[d]imidazole-6-carboxylic acid], 3.64 nM; as for `COCCn1c(Cc2cc(F)c(-c3cccc(OCc4ccc(-c5ccc(N6CCCC6)nc5)cc4F)n3)cc2F)nc2ccc(C(=O)O)cc21` [Example 228, 2-(2,5-difluoro-4-(6-((2-fluoro-4-(6-(pyrrolidin-1-yl)pyridin-3-yl)benzyl)oxy)pyridin-2-yl)benzyl)-1-(2-methoxyethyl)-1H-benzo[d]imidazole-6-carboxylic acid], 26 nM. For `COc1nnc(COc2cccc(-c3cc(F)c(Cc4nc5ccc(C(=O)O)cc5n4[C@@H]4COCC4(C)C)c(F)c3F)n2)s1` [Example 273, (S)-1-(4,4-dimethyltetrahydrofuran-3-yl)-2-(2,3,6-trifluoro-4-(6-((5-methoxy-1,3,4-thiadiazol-2-yl)methoxy)pyridin-2-yl)benzyl)-1H-benzo[d]imidazole-6-carboxylic acid], the EC50 was 0.144 nM.

Regarding `NC(=O)c1ccc(COc2cccc(-c3cc(F)c(Cc4nc5ccc(C(=O)O)cc5n4C[C@@H]4CCO4)cc3F)n2)c(F)n1` [Example 240, 2-[[4-[6-[(6-carbamoyl-2-fluoro-3-pyridyl)methoxy]-2-pyridyl]-2,5-difluoro-phenyl]methyl]-3-[[(2S)-oxetan-2-yl]methyl]benzimidazole-5-carboxylic acid], the 50% effective concentration (EC50) was 1.13 nM.

`N#CC1(NC(=O)c2ccc(COc3cccc(-c4cc(F)c(Cc5nc6c(F)cc(C(=O)O)cc6n5C[C@@H]5CCO5)cc4F)n3)cn2)CC1` [Example 197, (S)-2-(4-(6-((6-((1-cyanocyclopropyl)carbamoyl)pyridin-3-yl)methoxy)pyridin-2-yl)-2,5-difluorobenzyl)-4-fluoro-1-(oxetan-2-ylmethyl)-1H-benzo[d]imidazole-6-carboxylic acid] came in with an EC50 of 0.08 nM. This EC50 is about 14-fold lower than that of the compound before. As for `CC(C)(C)OC(=O)N[C@H]1C[C@@H](n2cc(-c3ccc(COc4cccc(-c5cc(F)c(Cc6nc7ccc(C(=O)O)cc7n6C[C@@H]6CCO6)cc5F)n4)c(F)c3)nn2)C1` [Example 219, 2-(4-(6-((4-(1-((1s,3s)-3-((tert-butoxycarbonyl)amino)cyclobutyl)-1H-1,2,3-triazol-4-yl)-2-fluorobenzyl)oxy)pyridin-2-yl)-2,5-difluorobenzyl)-1-(((S)-oxetan-2-yl)methyl)-1H-benzo[d]imidazole-6-carboxylic acid], the figure is 0.85 nM; as for “2-(4-(6-((5-(difluoromethyl)thiazol-2-yl)methoxy)pyridin-2-yl)-2,5-difluorobenzyl)-4-fluoro-1-((1-(fluoromethyl)cyclopropyl)methyl)-1H-benzo[d]imidazole-6-carboxylic acid [Example 413]”, 0.36 nM.

Compound `N#Cc1ccc(C#Cc2cnc(COc3cccc(-c4cc(F)c(Cc5nc6ccc(C(=O)O)cc6n5C[C@@H]5CCO5)cc4F)n3)nc2)cc1` [Example 404, (S)-2-(4-(6-((5-((4-cyanophenyl)ethynyl)pyrimidin-2-yl)methoxy)pyridin-2-yl)-2,5-difluorobenzyl)-1-(oxetan-2-ylmethyl)-1H-benzo[d]imidazole-6-carboxylic acid] yielded an EC50 of 0.689 nM. This EC50 is about 1.9-fold higher than that of the compound before.

As to `O=C(O)c1cc(F)c2nc(Cc3cc(F)c(-c4cccc(OCc5ncc(C(F)(F)F)s5)n4)cc3F)n(CC3(CF)CC3)c2c1` [Example 412, 2-(2,5-difluoro-4-(6-((5-(trifluoromethyl)thiazol-2-yl)methoxy)pyridin-2-yl)benzyl)-4-fluoro-1-((1-(fluoromethyl)cyclopropyl)methyl)-1H-benzo[d]imidazole-6-carboxylic acid], the EC50 came out at 0.099 nM. Compared with the last compound, the EC50 is about 7-fold lower. As for `Cc1nc(COc2cccc(-c3cc(F)c(Cc4nc5ccc(C(=O)O)cc5n4C[C@@H]4CCO4)cc3F)n2)sc1Br` [Example 27, (S)-2-(4-(6-((5-bromo-4-methylthiazol-2-yl)methoxy)pyridin-2-yl)-2,5-difluorobenzyl)-1-(oxetan-2-ylmethyl)-1H-benzo[d]imidazole-6-carboxylic acid], the figure is 0.08 nM. As for `COc1cc(C(N)=O)ncc1COc1cccc(-c2cc(F)c(Cc3nc4ccc(C(=O)O)cc4n3C[C@@H]3CCO3)cc2F)n1` [Example 242, (S)-2-(4-(6-((6-carbamoyl-4-methoxypyridin-3-yl)methoxy)pyridin-2-yl)-2,5-difluorobenzyl)-1-(oxetan-2-ylmethyl)-1H-benzo[d]imidazole-6-carboxylic acid], the figure is 0.02 nM; as for `CCn1cc(Cl)c(COc2cccc(-c3cc(F)c(Cc4nc5ccc(C(=O)O)cc5n4C[C@@H]4CCO4)cc3F)n2)n1` [Example 76, (S)-2-(4-(6-((4-chloro-1-ethyl-1H-pyrazol-3-yl)methoxy)pyridin-2-yl)-2,5-difluorobenzyl)-1-(oxetan-2-ylmethyl)-1H-benzo[d]imidazole-6-carboxylic acid], 4.23 nM.

Regarding `O=C(O)c1ccc2nc(Cc3cc(F)c(-c4cccc(OCc5cnc(C(=O)NC6CCCC6)cc5F)n4)cc3F)n(C[C@@H]3CCO3)c2c1` [Example 244, (S)-2-(4-(6-((6-(cyclopentylcarbamoyl)-4-fluoropyridin-3-yl)methoxy)pyridin-2-yl)-2,5-difluorobenzyl)-1-(oxetan-2-ylmethyl)-1H-benzo[d]imidazole-6-carboxylic acid], the EC50 was 2.28 nM. This EC50 lies about 1.9-fold lower than the previous one.

As to `CC(F)(F)c1cnc(COc2nc(-c3cc(F)c(Cc4nc5ccc(C(=O)O)cc5n4[C@@H]4COCC4(C)C)cc3F)ccc2F)s1` [Example 340, (S)-2-(4-(6-((5-(1,1-difluoroethyl)thiazol-2-yl)methoxy)-5-fluoropyridin-2-yl)-2,5-difluorobenzyl)-1-(4,4-dimethyltetrahydrofuran-3-yl)-1H-benzo[d]imidazole-6-carboxylic acid], the midpoint of the response, the EC50, lay at 0.058 nM. The result for `Cn1nccc1NC(=O)c1cc(Cl)c(COc2cccc(-c3cc(F)c(Cc4nc5ccc(C(=O)O)cc5n4C[C@@H]4CCO4)cc3F)n2)cn1` [Example 196, (S)-2-(4-(6-((4-chloro-6-((1-methyl-1H-pyrazol-5-yl)carbamoyl)pyridin-3-yl)methoxy)pyridin-2-yl)-2,5-difluorobenzyl)-1-(oxetan-2-ylmethyl)-1H-benzo[d]imidazole-6-carboxylic acid] reads 0.29 nM. As for `O=C(O)c1ccc2nc(Cc3c(F)cc(-c4cccc(OCc5ncc(C(F)(F)F)s5)n4)c(F)c3F)n(C[C@@H]3CCO3)c2c1` [Example 448, (S)-1-(oxetan-2-ylmethyl)-2-(2,3,6-trifluoro-4-(6-((5-(trifluoromethyl)thiazol-2-yl)methoxy)pyridin-2-yl)benzyl)-1H-benzo[d]imidazole-6-carboxylic acid], the figure is 0.118 nM.
